From patent US9492552B2, “Injectable aqueous pharmaceutical compositions comprising a cyclodextrin, a hydrophobic drug, a co-solvent, and a preservative” (JUROX PTY LTD, priority 2011, dated 2016)

Experiment: Precipitation of alfaxalone from alfaxalone/2-hydroxypropyl-β-cyclodextrin complex solution on adding preservative without co-solvent
Type: physicochemical
Conditions: upwards to 1% w/v (typical content); no co-solvent

## OCc1ccccc1 [benzyl alcohol]
  benzyl alcohol content at which significant precipitation occurs (titration): ≥ 0.2 % w/v
